In patent publication US20240417405A1, “Substituted Spiro Derivatives” (Janssen Pharmaceutica NV, priority 2021, published 2024) one finds IC50 data, which are given here for 17 molecules.

One assay has as its system MOLM14 cells. As to the kind of experiment: Proliferation assay, spheroid-like growth, MOLM14 (MLL-AF9 rearranged). The format is cell-based, human. The following applies: Homo sapiens, MOLM-14, 192 h, 8 days, confluence as measure of spheroid size, read-out: spheroid assay_OneTime MOLM14 IC50. On the procedure:
The anti-proliferative effect of menin/MLL protein/protein interaction inhibitor test compounds was assessed in human leukemia cell lines. The cell line MOLM14 harbors a MLL translocation and expresses the MLL fusion proteins MLL-AF9, respectively, as well as the wildtype protein from the second allele. […] KO-52 was used as a control cell line containing two MLL (KMT2A) wildtype alleles in order to exclude compounds that display general cytotoxic effects.
MOLM14 cells were cultured in RPMI-1640 (Sigma Aldrich) supplemented with 10% heat-inactivated fetal bovine serum (HyClone), 2 mM L-glutamine (Sigma Aldrich) and 50 μg/ml gentamycin (Gibco). KO-52 cell lines were propagated in alpha-MEM (Sigma Aldrich) supplemented with 20% heat-inactivated fetal bovine serum (HyClone), 2 mM L-glutamine (Sigma Aldrich) and 50 μg/ml gentamycin (Gibco).
In order to assess the anti-proliferative effects, 200 MOLM14 cells, or 300 KO-52 cells were seeded in 200 μl media per well in 96-well round bottom, ultra-low attachment plates (Costar, catalogue number 7007). Cell seeding numbers were chosen based on growth curves to ensure linear growth throughout the experiment. Test compounds were added at different concentrations and the DMSO content was normalized to 0.3%. Cells were incubated for 8 days at 37° C. and 5% CO2. Spheroid like growth was measured in real-time by live-cell imaging (IncuCyteZOOM, Essenbio, 4× objective) acquiring images at day 8. Confluence (%) as a measure of spheroid size was determined using an integrated analysis tool.
In order to determine the effect of the test compounds over time, the confluence in each well as a measure of spheroid size, was calculated. Confluence of the highest dose of a reference compound was used as baseline for the LC (Low control) and the confluence of DMSO treated cells was used as 0% cytotoxicity (High Control, HC).
Absolute IC50 values were calculated as percent change in confluence as follows:
LC=Low Control: cells treated with e.g. 1 μM of the cytotoxic agent staurosporin, or e.g. cells treated with a high concentration of an alternative reference compound
GraphPad Prism (version 7.00) was used to calculate the IC50. Dose-response equation was used for the plot of % Effect vs Log 10 compound concentration with a variable slope and fixing the maximum to 100% and the minimum to 0%.

Assay [1] concerns the target T1, menin/MLL (terbium chelate-labeled menin, FITC-MBM1 peptide) (Homo sapiens, UniProt O00255, T541A).
T1 construct: Menin (a.a 1-610-6xhis tag)
T1 sequence (O00255 with tags, fused parts or gaps T541A): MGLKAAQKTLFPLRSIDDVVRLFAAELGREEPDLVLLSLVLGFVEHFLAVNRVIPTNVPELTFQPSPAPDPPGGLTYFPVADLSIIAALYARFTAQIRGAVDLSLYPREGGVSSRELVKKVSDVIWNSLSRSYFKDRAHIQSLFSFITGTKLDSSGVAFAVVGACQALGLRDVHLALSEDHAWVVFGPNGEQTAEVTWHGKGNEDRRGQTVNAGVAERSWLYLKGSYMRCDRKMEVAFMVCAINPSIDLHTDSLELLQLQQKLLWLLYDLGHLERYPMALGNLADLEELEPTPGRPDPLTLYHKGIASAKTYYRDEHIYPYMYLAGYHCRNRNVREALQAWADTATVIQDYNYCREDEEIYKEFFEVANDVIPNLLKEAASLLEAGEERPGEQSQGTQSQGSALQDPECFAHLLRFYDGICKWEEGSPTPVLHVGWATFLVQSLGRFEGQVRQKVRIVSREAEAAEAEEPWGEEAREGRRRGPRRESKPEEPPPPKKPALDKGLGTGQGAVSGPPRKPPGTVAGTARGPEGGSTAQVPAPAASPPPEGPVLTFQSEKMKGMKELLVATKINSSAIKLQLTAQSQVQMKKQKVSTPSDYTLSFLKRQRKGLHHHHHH
Nature of the assay: Menin/MLL homogenous time-resolved fluorescence (HTRF) assay. The format is binding. The settings on record: 30 min incubation. On the procedure:
1) Menin/MLL Homogenous Time-Resolved Fluorescence (HTRF) Assay
To an untreated, white 384-well microtiter plate was added 40 nL 200× test compound in DMSO and 4 μL 2× terbium chelate-labeled menin (vide infra for preparation) in assay buffer (40 mM Tris.HCl, pH 7.5, 50 mM NaCl, 1 mM DTT (dithiothreitol) and 0.05% Pluronic F-127). After incubation of test compound and terbium chelate-labeled menin for 30 min at ambient temperature, 4 μL 2× FITC-MBM1 peptide (FITC-β-alanine-SARWRFPARPGT-NH2 (SEQ ID NO: 3)) (“FITC” means fluorescein isothiocyanate) in assay buffer was added, the microtiter plate centrifuged at 1000 rpm for 1 min and the assay mixtures incubated for 15 min at ambient temperature. The relative amount of menin FITC-MBM1 complex present in an assay mixture is determined by measuring the homogenous time-resolved fluorescence (HTRF) of the terbium/FITC donor/acceptor fluorophore pair using an EnVision microplate reader (ex. 337 nm/terbium em. 490 nm/FITC em. 520 nm) at ambient temperature. The degree of fluorescence resonance energy transfer (the HTRF value) is expressed as the ratio of the fluorescence emission intensities of the FITC and terbium fluorophores (F^em 520 nm/F^em 490 nm). The final concentrations of reagents in the binding assay are 200 pM terbium chelate-labeled menin, 75 nM FITC-MBM1 peptide and 0.5% DMSO in assay buffer. Dose-response titrations of test compounds are conducted using an 11 point, four-fold serial dilution scheme, starting typically at 10 μM.
Compound potencies were determined by first calculating % inhibition at each compound concentration according to equation 1:
% inhibition=((HC−LC)−(HTRF^compound−LC))/(HC−LC))*100 (Eqn 1)
Where LC and HC are the HTRF values of the assay in the presence or absence of a saturating concentration of a compound that competes with FITC-MBM1 for binding to menin, and HTRF^compound is the measured HTRF value in the presence of the test compound. HC and LC HTRF values represent an average of at least 10 replicates per plate.
% inhibition=Bottom+(Top−Bottom)/(1+10^((logIC50−log[cmpd])*h)) (Eqn 2)
Where Bottom and Top are the lower and upper asymptotes of the dose-response curve, respectively, IC50 is the concentration of compound that yields 50% inhibition of signal and h is the Hill coefficient. IC50 values below 0.1 nM in the HTRF assay were reported as 0.1 nM in the Table below (detection limit).
Preparation of Terbium cryptate labeling of Menin: Menin (a.a 1-610-6xhis tag (“6xhis tag” disclosed as SEQ ID NO: 2), 2.3 mg/mL in 20 mM Hepes (2-[4-(2-Hydroxyethyl)-1-piperazinyl]ethane sulfonic acid), 80 mM NaCl, 5 mM DTT (Dithiothreitol), pH 7.5) was labeled with terbium cryptate as follows. 200 μg of Menin was buffer exchanged into 1× Hepes buffer. 6.67 μM Menin was incubated with 8-fold molar excess NHS (N-hydroxysuccinimide)-terbium cryptate for 40 minutes at room temperature. Half of the labeled protein was purified away from free label by running the reaction over a NAP5 column with elution buffer (0.1 M Hepes, pH 7+0.1% BSA (bovine serum albumin)). The other half was eluted with 0.1 M phosphate buffered saline (PBS), pH7. 400 μl of eluent was collected for each, aliquoted and frozen at −80° C. The final concentration of terbium-labeled Menin protein was 115 μg/mL in Hepes buffer and 85 μg/mL in PBS buffer, respectively.
Background: In TR-FRET formats the signal depends on donor and acceptor labels being close together.

Structures are written as SMILES.

Usually IC50 stands for the midpoint of a concentration-inhibition curve.

Consider `CC(C)[C@H]([C@H]1C[C@@H](NC2(C)CCS(=O)(=O)CC2)C1)N1CC2(CCN(c3ncnnc3Oc3ccc(F)cc3-c3cncnc3C3CC3)C2)C1` (single isomer, unassigned) [Compound 44], for which the figures for the IC50 (in the assay with MOLM14 cells; in assay [1]) were 27 nM and 0.1 nM, respectively.

Take `CC(=O)N1CCCN([C@H]2C[C@@H]([C@@H](C(C)C)N3CC4(CCN(c5ncnnc5Oc5ccc(F)cc5-c5cncnc5C5CC5)C4)C3)C2)CC1` (single isomer, unassigned) [Compound 61]: the 50% inhibitory concentration (IC50) with MOLM14 cells turned out to be 23 nM; in assay [1], 0.2 nM.

With `CC(C)[C@H]([C@H]1C[C@@H](N2CCC3(CCO3)C2)C1)N1CC2(CCN(c3ncnnc3Oc3ccc(F)cc3-c3cncnc3C3CC3)C2)C1` (single isomer, unassigned) [Compound 212], the IC50 in the assay on MOLM14 cells is 8 nM; in assay [1] it was 0.2 nM.

Take `CC(C)[C@H]([C@H]1C[C@@H](NC2CS(=O)(=O)C2)C1)N1CC2(CCN(c3ncnnc3Oc3ccc(F)cc3-c3cncnc3C3CC3)C2)C1` (single isomer, unassigned) [Compound 235]: the values for the IC50 (in the assay with MOLM14 cells; in assay [1]) were 3 nM and 0.5 nM, respectively.

For the molecule `CC(C)[C@H]([C@H]1C[C@@H](N2CCNC(=O)C2)C1)N1CC2(CCN(c3ncnnc3Oc3ccc(F)cc3-c3cncnc3C3CC3)C2)C1` (single isomer, unassigned) [Compound 240], the IC50 in the assay with MOLM14 cells is 270 nM; in assay [1], 1.9 nM.

Take `CC(C)[C@H]([C@H]1C[C@H](N2CCNC(=O)C2)C1)N1CC2(CCN(c3ncnnc3Oc3ccc(F)cc3-c3cncnc3C3CC3)C2)C1` (single isomer, unassigned) [Compound 241]: the IC50 in the assay on MOLM14 cells turned out to be 510 nM; in assay [1] it was 2.1 nM.

Consider `CC(C)[C@@H]([C@H]1C[C@@H](N2C[C@H]3COC[C@H]3C2)C1)N1CC2(CCN(c3ncnnc3Oc3ccc(F)cc3-c3cncnc3C3CC3)C2)C1` (single isomer, unassigned) [Compound 244], for which the IC50 in the assay with MOLM14 cells came out at 130 nM; in assay [1], 1.6 nM.

For `CC(C)[C@H]([C@H]1C[C@@H](N2CC3(CCCO3)C2)C1)N1CC2(CCN(c3ncnnc3Oc3ccc(F)cc3-c3cncnc3C3CC3)C2)C1` (single isomer, unassigned) [Compound 246], the IC50 with MOLM14 cells was 180 nM; in assay [1], 0.3 nM.

Consider `CC(C)[C@H]([C@H]1C[C@@H](N2CC3(CCOC3)C2)C1)N1CC2(CCN(c3ncnnc3Oc3ccc(F)cc3-c3cncnc3C3CC3)C2)C1` (single isomer, unassigned) [Compound 247], for which the IC50 in the assay with MOLM14 cells came to 9 nM; in assay [1] it was 0.1 nM.

On to `CC(C)[C@H]([C@H]1C[C@@H](N2CC3(CCS(=O)(=O)CC3)C2)C1)N1CC2(CCN(c3ncnnc3Oc3ccc(F)cc3-c3cncnc3C3CC3)C2)C1` (single isomer, unassigned) [Compound 249], for which the IC50 with MOLM14 cells is 9 nM; in assay [1], 0.1 nM.

As for `COC1(C)CN([C@H]2C[C@@H]([C@H](C(C)C)N3CC4(CCN(c5ncnnc5Oc5ccc(F)cc5-c5nnccc5C5CC5)C4)C3)C2)C1` (single isomer, unassigned) [Compound 263], the figures for the IC50 (in the assay with MOLM14 cells; in assay [1]) were 9 nM and 0.2 nM, respectively.

Take `CC(C)[C@@H]([C@H]1C[C@@H](N2CC3(CCCO3)C2)C1)N1CC2(CCN(c3ncnnc3Oc3ccc(F)cc3-c3nnccc3C3CC3)C2)C1` (single isomer, unassigned) [Compound 265]: the IC50 worked out at 11 nM in the assay on MOLM14 cells and 0.1 nM in assay [1].

In the case of `CC(C)[C@@H]([C@H]1C[C@@H](N2CC3(CCCCO3)C2)C1)N1CC2(CCN(c3ncnnc3Oc3ccc(F)cc3-c3nnccc3C3CC3)C2)C1` (single isomer, unassigned) [Compound 266], the IC50 was under 2 nM in the assay on MOLM14 cells and 0.1 nM in assay [1].

`CC(C)[C@H]([C@H]1C[C@@H](N2CC3(CCCCO3)C2)C1)N1CC2(CCN(c3ncnnc3Oc3ccc(F)cc3-c3nnccc3C3CC3)C2)C1` (single isomer, unassigned) [Compound 267]: the IC50 in the assay with MOLM14 cells turned out to be 180 nM; in assay [1], 1.3 nM.

As for `CC(C)[C@@H]([C@H]1C[C@@H](N2CCC3(CCO3)C2)C1)N1CC2(CCN(c3ncnnc3Oc3ccc(F)cc3-c3nnccc3C3CC3)C2)C1` (single isomer, unassigned) [Compound 268], the IC50 in the assay on MOLM14 cells was determined as 6 nM; in assay [1] it was 0.1 nM.

Regarding `CC(C)[C@H]([C@H]1C[C@@H](N2CCC3(CCO3)C2)C1)N1CC2(CCN(c3ncnnc3Oc3ccc(F)cc3-c3nnccc3C3CC3)C2)C1` (single isomer, unassigned) [Compound 269], the 50% inhibitory concentration (IC50) is over 940 nM in the assay with MOLM14 cells and 5.6 nM in assay [1].

With `CC(C)[C@@H]([C@H]1C[C@@H](N2CCC3(CCCO3)C2)C1)N1CC2(CCN(c3ncnnc3Oc3ccc(F)cc3-c3nnccc3C3CC3)C2)C1` (single isomer, unassigned) [Compound 270], the IC50 in the assay on MOLM14 cells was determined as 2 nM; in assay [1] it was 0.2 nM.
